In patent publication US20260053834A1, “COVALENT MODIFIERS OF AKT1 AND USES THEREOF” (Terremoto Biosciences, Inc., priority 2023, published 2026):

Tests used:
[1] = system: LAPC4 prostate cancer cells, which express the AKT1 E17K allele; experiment: Antiproliferative effects in LAPC4 cells (CellTiter Glo, 72 h); type: cell-based; conditions: Homo sapiens, LAPC4, 72 h, read-out: LAPC4 proliferation IC50: GeoMean IC50
In short: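 IC50 values come from Hill-equation fitting of luminescence (cellular ATP) after 72 h compound exposure. Treated wells held 1,000 cells each, with compound delivered as DMSO dilutions. Culture medium was IMDM plus 12% FBS.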

AKT2 = molecular target: T1, AKT2 (Homo sapiens, UniProt P31751); experiment: Live cell target engagement by NanoBRET competitive probe displacement, AKT2; type: binding; conditions: transfected HEK293 cells, 2 h at 37° C., read-out: AKT2 IC50: GeoMean IC50
T1 construct: expressed in transfected cells; host or cells: HEK293

AKT1 WT = molecular target: T2, AKT1 WT (Homo sapiens, UniProt P31749); experiment: Live cell target engagement by NanoBRET competitive probe displacement, AKT1 WT; type: binding; conditions: transfected HEK293 cells, 2 h at 37° C., read-out: AKT1 WT IC50: GeoMean IC50
T2 construct: expressed in transfected cells; host or cells: HEK293

AKT1 E17K = molecular target: T3, AKT1 E17K (Homo sapiens, UniProt P31749, E17K); experiment: Live cell target engagement by NanoBRET competitive probe displacement, AKT1 E17K; type: binding; conditions: transfected HEK293 cells, 2 h at 37° C., read-out: AKT1 E17K IC50: GeoMean IC50
T3 construct: expressed in transfected cells; host or cells: HEK293
T3 sequence (P31749 whole entry E17K): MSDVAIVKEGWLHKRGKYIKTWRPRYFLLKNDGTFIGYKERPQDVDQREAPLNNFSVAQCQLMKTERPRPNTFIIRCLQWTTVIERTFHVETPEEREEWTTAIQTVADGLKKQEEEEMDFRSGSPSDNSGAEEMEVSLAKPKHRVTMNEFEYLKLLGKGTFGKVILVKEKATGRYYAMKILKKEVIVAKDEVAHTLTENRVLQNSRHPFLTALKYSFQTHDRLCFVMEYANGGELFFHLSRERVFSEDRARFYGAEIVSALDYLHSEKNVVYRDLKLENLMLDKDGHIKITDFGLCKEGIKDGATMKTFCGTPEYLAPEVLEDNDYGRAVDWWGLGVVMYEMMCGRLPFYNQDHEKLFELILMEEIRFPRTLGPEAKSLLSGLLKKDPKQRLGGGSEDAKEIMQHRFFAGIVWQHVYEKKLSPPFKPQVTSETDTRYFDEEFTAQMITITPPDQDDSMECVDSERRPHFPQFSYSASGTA

T2 sequence (P31749 whole entry): as the sequence (P31749 whole entry E17K) above, with K17E counted along it
T1 sequence (P31751 whole entry): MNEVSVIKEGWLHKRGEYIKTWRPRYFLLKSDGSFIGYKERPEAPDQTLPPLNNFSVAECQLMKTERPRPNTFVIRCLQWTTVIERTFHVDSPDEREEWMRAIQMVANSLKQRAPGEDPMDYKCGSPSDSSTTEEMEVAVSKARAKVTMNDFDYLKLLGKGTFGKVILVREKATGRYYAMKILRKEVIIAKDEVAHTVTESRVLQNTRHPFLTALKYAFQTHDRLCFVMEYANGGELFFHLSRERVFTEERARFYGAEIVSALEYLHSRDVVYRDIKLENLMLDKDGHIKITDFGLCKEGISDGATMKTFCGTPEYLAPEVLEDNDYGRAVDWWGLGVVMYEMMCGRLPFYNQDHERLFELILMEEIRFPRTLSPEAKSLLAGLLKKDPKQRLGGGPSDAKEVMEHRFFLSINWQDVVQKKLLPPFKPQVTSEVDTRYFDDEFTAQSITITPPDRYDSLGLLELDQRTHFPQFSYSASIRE

SMILES	IC50 [1]	IC50 (AKT2)	IC50 (AKT1 WT)	IC50 (AKT1 E17K)
Nc1cc(O)c(C=O)cc1C(=O)N[C@H]1CCc2cc(-n3c(-c4cccnc4N)nc4ccc(-n5cccn5)nc43)ccc21 [Example 237, 2-amino-N-[(1S)-5-[2-(2-aminopyridin-3-yl)-5-(pyrazol-1-yl)imidazo[4,5-b]pyridin-3-yl]-2,3-dihydro-1H-inden-1-yl]-5-formyl-4-hydroxybenzamide]	100 to 2000 nM	100 to 2000 nM	10 to 100 nM	10 to 100 nM
Nc1ncccc1-c1nc2ccc(-n3cccn3)nc2n1-c1ccc2c(c1)CC(F)(F)[C@@H]2NC(=O)c1ccc(O)c(C=O)c1 [Example 195, (R)—N-(5-(2-(2-aminopyridin-3-yl)-5-(1H-pyrazol-1-yl)-3H-imidazo[4,5-b]pyridin-3-yl)-2,2-difluoro-2,3-dihydro-1H-inden-1-yl)-3-formyl-4-hydroxybenzamide]	10 to 100 nM	100 to 2000 nM	100 to 2000 nM	10 to 100 nM
Nc1ncccc1-c1nc2c(OC(F)F)cc(-n3cccn3)nc2n1-c1ccc2c(c1)CC[C@@H]2NC(=O)c1ccc(O)c(C=O)c1 [Example 225, N-[(1S)-5-[2-(2-aminopyridin-3-yl)-7-(difluoromethoxy)-5-(pyrazol-1-yl)imidazo[4,5-b]pyridin-3-yl]-2,3-dihydro-1H-inden-1-yl]-3-formyl-4-hydroxybenzamide]	10 to 100 nM	100 to 2000 nM	10 to 100 nM	10 to 100 nM
Nc1ncccc1-c1nc2ccc(-n3cccn3)nc2n1-c1ccc2c(c1)CC[C@@H]2NCc1cc(C=O)c(O)cc1F [Example 239, 5-({[(1S)-5-[2-(2-aminopyridin-3-yl)-5-(pyrazol-1-yl)imidazo[4,5-b]pyridin-3-yl]-2,3-dihydro-1H-inden-1-yl]amino}methyl)-4-fluoro-2-hydroxybenzaldehyde]	≥ 2000 nM	100 to 2000 nM	10 to 100 nM	10 to 100 nM
[2H]C(=O)c1cc(C(=O)N[C@H]2CCc3cc(-n4c(-c5cccnc5N)nc5ccc(-n6cccn6)nc54)ccc32)c(F)c(F)c1O [Example 204, (S)—N-(5-(2-(2-aminopyridin-3-yl)-5-(1H-pyrazol-1-yl)-3H-imidazo[4,5-b]pyridin-3-yl)-2,3-dihydro-1H-inden-1-yl)-2,3-difluoro-5-(formyl-d)-4-hydroxybenzamide]	10 to 100 nM	10 to 100 nM	< 10 nM	< 10 nM
Nc1ncccc1-c1nc2ccc(-c3ccccc3)nc2n1-c1ccc2c(c1)CC[C@@H]2NC(=O)C1(c2cnc(C=O)c(O)c2)CC1 [Example 12, N-[(1S)-5-[2-(2-aminopyridin-3-yl)-5-phenylimidazo[4,5-b]pyridin-3-yl]-2,3-dihydro-1H-inden-1-yl]-1-(6-formyl-5-hydroxypyridin-3-yl)cyclopropane-1-carboxamide]	≥ 2000 nM	100 to 2000 nM	100 to 2000 nM	100 to 2000 nM
Cc1nnc(-c2ccc3nc(-c4cccnc4N)n(-c4ccc5c(c4)CC[C@@H]5NC(=O)c4ccc(O)c(C=O)c4)c3n2)s1 [Example 203, N-[(1S)-5-[2-(2-aminopyridin-3-yl)-5-(5-methyl-1,3,4-thiadiazol-2-yl)imidazo[4,5-b]pyridin-3-yl]-2,3-dihydro-1H-inden-1-yl]-3-formyl-4-hydroxybenzamide]	100 to 2000 nM	100 to 2000 nM	10 to 100 nM	10 to 100 nM
Nc1ncccc1-c1nc2ccc(-n3cccn3)nc2n1-c1ccc2c(c1)CC[C@@H]2NC(=O)c1cc(C=O)c(O)c(F)c1F [Example 82, (S)—N-(5-(2-(2-aminopyridin-3-yl)-5-(1H-pyrazol-1-yl)-3H-imidazo[4,5-b]pyridin-3-yl)-2,3-dihydro-1H-inden-1-yl)-2,3-difluoro-5-formyl-4-hydroxybenzamide]	10 to 100 nM	10 to 100 nM	10 to 100 nM	10 to 100 nM
Cc1cc(C)c2nc(-c3cccnc3N)n(-c3ccc4c(c3)CC[C@@H]4NC(=O)c3ccc(O)c(C=O)c3)c2n1 [Example 69, N-[(1S)-5-[2-(2-aminopyridin-3-yl)-5,7-dimethylimidazo[4,5-b]pyridin-3-yl]-2,3-dihydro-1H-inden-1-yl]-3-formyl-4-hydroxybenzamide]	100 to 2000 nM	≥ 2000 nM	100 to 2000 nM	10 to 100 nM
Nc1ncccc1-c1nc2ccc(-c3ccccc3)nc2n1-c1ccc2c(c1)CC[C@@H]2NC(=O)c1ccc(NC(=O)N2CCOCC2)c(C=O)c1 [Example 68, N-(4-{[(1S)-5-[2-(2-aminopyridin-3-yl)-5-phenylimidazo[4,5-b]pyridin-3-yl]-2,3-dihydro-1H-inden-1-yl]carbamoyl}-2-formylphenyl)morpholine-4-carboxamide]	100 to 2000 nM	100 to 2000 nM	10 to 100 nM	10 to 100 nM
N#Cc1cc(-n2cccn2)nc2c1nc(-c1cccnc1N)n2-c1ccc2c(c1)CC[C@@H]2NC(=O)c1ccc(O)c(C=O)c1 [Example 209, N-[(1S)-5-[2-(2-aminopyridin-3-yl)-7-cyano-5-(pyrazol-1-yl)imidazo[4,5-b]pyridin-3-yl]-2,3-dihydro-1H-inden-1-yl]-3-formyl-4-hydroxybenzamide]	10 to 100 nM	100 to 2000 nM	10 to 100 nM	10 to 100 nM

Next, values leading:

IC50 [1]	IC50 (AKT2)	IC50 (AKT1 WT)	IC50 (AKT1 E17K)	SMILES
100 to 2000 nM	100 to 2000 nM	10 to 100 nM	10 to 100 nM	COc1cnn(-c2ccc3nc(-c4cccnc4N)n(-c4ccc5c(c4)CC[C@@H]5NC(=O)c4ccc(O)c(C=O)c4)c3n2)c1 [Example 83, N-[(1S)-5-[2-(2-aminopyridin-3-yl)-5-(4-methoxypyrazol-1-yl)imidazo[4,5-b]pyridin-3-yl]-2,3-dihydro-1H-inden-1-yl]-3-formyl-4-hydroxybenzamide]
10 to 100 nM	100 to 2000 nM	10 to 100 nM	10 to 100 nM	Nc1ncccc1-c1nc2ccc(-n3nccn3)nc2n1-c1ccc2c(c1)CC[C@@H]2NC(=O)c1ccc(O)c(C=O)c1 [Example 91, N-[(1S)-5-[2-(2-aminopyridin-3-yl)-5-(1,2,3-triazol-2-yl)imidazo[4,5-b]pyridin-3-yl]-2,3-dihydro-1H-inden-1-yl]-3-formyl-4-hydroxybenzamide]
10 to 100 nM	100 to 2000 nM	10 to 100 nM	10 to 100 nM	Nc1ncccc1-c1nc2ccc(-c3cncnc3)nc2n1-c1ccc2c(c1)CC[C@@H]2NC(=O)c1ccc(O)c(C=O)c1 [Example 58, N-[(1S)-5-[2-(2-aminopyridin-3-yl)-5-(pyrimidin-5-yl)imidazo[4,5-b]pyridin-3-yl]-2,3-dihydro-1H-inden-1-yl]-3-formyl-4-hydroxybenzamide]
100 to 2000 nM	100 to 2000 nM	10 to 100 nM	10 to 100 nM	Nc1ncccc1-c1nc2ccc(-n3ccnn3)nc2n1-c1ccc2c(c1)CC[C@@H]2NC(=O)c1ccc(O)c(C=O)c1 [Example 92, N-[(1S)-5-[2-(2-aminopyridin-3-yl)-5-(1,2,3-triazol-1-yl)imidazo[4,5-b]pyridin-3-yl]-2,3-dihydro-1H-inden-1-yl]-3-formyl-4-hydroxybenzamide]
100 to 2000 nM	100 to 2000 nM	10 to 100 nM	10 to 100 nM	Nc1ncccc1-c1nc2ccc(-n3ccc(F)n3)nc2n1-c1ccc2c(c1)CC[C@@H]2NC(=O)c1ccc(O)c(C=O)c1 [Example 75, (S)—N-(5-(2-(2-aminopyridin-3-yl)-5-(3-fluoro-1H-pyrazol-1-yl)-3H-imidazo[4,5-b]pyridin-3-yl)-2,3-dihydro-1H-inden-1-yl)-3-formyl-4-hydroxybenzamide]
100 to 2000 nM	100 to 2000 nM	100 to 2000 nM	10 to 100 nM	Nc1ncccc1-c1nc2ccc(-n3cc(C(F)F)cn3)nc2n1-c1ccc2c(c1)CC[C@@H]2NC(=O)c1ccc(O)c(C=O)c1 [Example 94, N-[(1S)-5-[2-(2-aminopyridin-3-yl)-5-[4-(difluoromethyl)pyrazol-1-yl]imidazo[4,5-b]pyridin-3-yl]-2,3-dihydro-1H-inden-1-yl]-3-formyl-4-hydroxybenzamide]
10 to 100 nM	100 to 2000 nM	10 to 100 nM	< 10 nM	COCc1ccn(-c2ccc3nc(-c4cccnc4N)n(-c4ccc5c(c4)CC[C@@H]5NC(=O)c4ccc(O)c(C=O)c4)c3n2)n1 [Example 126, N-[(1S)-5-[2-(2-aminopyridin-3-yl)-5-[3-(methoxymethyl)pyrazol-1-yl]imidazo[4,5-b]pyridin-3-yl]-2,3-dihydro-1H-inden-1-yl]-3-formyl-4-hydroxybenzamide]
≥ 2000 nM	10 to 100 nM	10 to 100 nM	10 to 100 nM	C#Cc1ccc(C(=O)N[C@H]2CCc3cc(-n4c(-c5cccnc5N)nc5ccc(-n6cccn6)nc54)ccc32)cc1C=O [Example 155, N-[(1S)-5-[2-(2-aminopyridin-3-yl)-5-(pyrazol-1-yl)imidazo[4,5-b]pyridin-3-yl]-2,3-dihydro-1H-inden-1-yl]-4-ethynyl-3-formylbenzamide]
≥ 2000 nM	100 to 2000 nM	100 to 2000 nM	100 to 2000 nM	Cc1cnc(N)c(-c2nc3ccc(-n4cccn4)nc3n2-c2ccc3c(c2)CC[C@@H]3NC(=O)c2ccc(O)c(C=O)c2)c1 [Example 167, (S)—N-(5-(2-(2-amino-5-methylpyridin-3-yl)-5-(1H-pyrazol-1-yl)-3H-imidazo[4,5-b]pyridin-3-yl)-2,3-dihydro-1H-inden-1-yl)-3-formyl-4-hydroxybenzamide]
